Patent US6835722B1, “Pharmaceutical compositions and preparations for treatment of metabolic bone disease” (Yuyu Industrial Co., Ltd., priority 1999, dated 2004)

How the values were obtained:
[1] = system: female Sprague-Dawley white rats; assay: Measurement of serum calcium concentration (Technicon autoanalyzer); details: single treatment (calcitriol 0.1 μg/kg or alendronate 1.0 mg/kg), 2 months, FIG. 3
Description: (§1) Twelve week old matured female Sprague-Dawley white rats were supplied from Daehan Biolink Co., Ltd. (Seoul, Korea) and raised in a dean room of an animal experiment laboratory in a medical school of Seoul National University. The white rats were given a week to adapt by feeding them with normal feedstuff (Purina, chow diet) and then they were divided into 6 different groups wherein each group consisted of 10 white rats with similar weight distribution, and ovariostereses were performed to all of them. The white rats were allowed to freely drink water and have food under a standardized condition of 22° C., 50% humidity, 12 h dark/light cycle.
(§2) The amount of medication administered in each group is shown in the following table 1 and the control group was administered only with equal amount of palm oil and physiological saline used in the experimental groups.
(§3) After 2 months of the onset of the above medications, 24 h urine samples were collected from the white rats by using a metabolic cage, centrifuged and then stored at −70° C. The white rats under experiment were fasted overnight decapitated, and their blood samples were collected. White rats sera were then obtained by centrifuging those blood samples and were stored at −70° C. Tibiae were separated by ablation and fixed with 4% formalin at pH 7.4.

[2] = system: female Sprague-Dawley white rats; assay: Measurement of calcium excretion in urine (calcium/creatine of 24 h urine); format: in vivo; details: single treatment (calcitriol 0.1 μg/kg or alendronate 1.0 mg/kg), 2 months, FIG. 4
Description: as §1, §2, §3

[3] = system: female Sprague-Dawley white rats; assay: Bone remodeling index: serum osteocalcin and alkaline phosphatase; format: in vivo; details: single treatment (calcitriol 0.1 μg/kg or alendronate 1.0 mg/kg), 2 months; for concentration of serum osteocalcin: FIG. 5; for activity of alkaline phosphatase: FIG. 6
Description: as §1, §2, §3
The activity level of serum alkaline phosphatase was measured by using Technicon autoanalyzer and the concentration of osteocalcin was measured by using a kit (OSCA test, Brahams, Berlin, Germany) which uses RIA method.

[4] = system: female Sprague-Dawley white rats; assay: Bone histomorphometry: area of trabecular bone of tibia after ovariosteresis; format: in vivo; details: single treatment (calcitriol 0.1 μg/kg or alendronate 1.0 mg/kg), oral 5 days/week for 2 months after ovariosteresis; image analyzer, FIG. 2
Description: as §1, §2, §3

post-menopausal women = details: clinical study; cited from earlier work

Structure (SMILES) | serum calcium concentration [1] | calcium excretion in urine (calcium/creatine, 24 h urine) [2] | concentration of serum osteocalcin [3] | activity of alkaline phosphatase [3] | area of trabecular bone [4] | reduction of rate of occurrence of new spinal fracture compared to placebo group (post-menopausal women)
C=C1/C(=C\C=C2/CCC[C@]3(C)[C@@H]([C@H](C)CCCC(C)(C)O)CC[C@@H]23)C[C@@H](O)C[C@@H]1O [calcitriol] | significant increase | increased markedly | slight increase | slight increase | not increased | –
NCCCC(O)(P(=O)(O)O)P(=O)(O)O [alendronate, 4-amino-hydroxybutylidine-1,1-bisphosphonate] | – | – | decreased | decreased | drastically increased | about 48%
